Reference: patent US20260070924A1, “INDAZOLE MACROCYCLES AND THEIR USE” (BLOSSOMHILL THERAPEUTICS, INC., priority 2022, published 2026)
pKd: −log10 of the molar value.

Tests used:
[1] = tested on: BCLAF1 exon10-12/exon 10-11; experiment: Alternative splicing ratio by qPCR in MOLM-13; type: cell-based; conditions: DMSO = 1.00
Method: (§1) Alternative splicing ratio of RNA transcripts was measured by qPCR in MV-4-11 and MOLM-13 cell lines. Cells were plated in 24 well plates at 1 million cells per well and then treated with compounds at different concentrations, with DMSO only as control. After 8-hour-incubation, cells were harvested and washed once with ice-cold PBS, and lysed in RNA lysis buffer (Invitrogen). Total RNA was extracted using the RNA Purification Kit (Invitrogen). 2 μg of RNA was used for cDNA synthesis using cDNA synthesis kit (ThermoFisher) and 20 ng of cDNA was used for qPCR using PROFLEX 96-Well PCR System (ThermoFisher).
Primers with the following sequences were used for the measurement: • BCLAF1 exon10-12/exon 10-11 (TaqMan, IDT)

IMR-32 tumor = experiment: Cell-derived xenograft (CDX) tumor model; type: in vivo; conditions: IMR-32 CDX, mice, oral 25 mg/kg QD, 8 days
Method: Tumor cells were cultured using standard techniques described above and were harvested and pelleted by centrifugation at 1000 rpm for 5 minutes. The pelleted cells were washed once with serum-free medium followed by subsequent re-suspension in the serum-free medium supplemented with 50% matrigel (Corning, Inc). Five million tumor cells were implanted subcutaneously to the right flank of each mouse, followed by tumor volume and body weight measurement once or twice per week with an electronic caliper (Fowler) and a balance, respectively. When the average tumor size reached a pre-determined volume, the mice were grouped and treated with Ex. 6. One group of mice were treated with vehicle as control. During treatment, mice were monitored daily by cage side observation. The tumor volume (TV) and body weight was measured twice or three times per week during the treatment. Study ended either after 4-5 weeks of treatment or tumor volume of any mice reached 1000 or 2000 mm^3. Tumor growth inhibition (TGI) was be calculated as follows: […]

FLT3-autoinhibited = FLT3-autoinhibited (Homo sapiens (Human), UniProt P36888); experiment: KINOMEscan binding assay (Eurofins DiscoveRx)
Method: (§2) For most kinases, kinase-tagged T7 phage strains were prepared in an E. coli host derived from the BL21 strain. E. coli were grown to log-phase and infected with T7 phage and incubated with shaking at 32° C. until lysis. The lysates were centrifuged and filtered to remove cell debris. The remaining kinases were produced in HEK-293 cells and subsequently tagged with DNA for qPCR detection. Streptavidin-coated magnetic beads were treated with biotinylated small molecule ligands for 30 minutes at room temperature to generate affinity resins for kinase assays. The liganded beads were blocked with excess biotin and washed with blocking buffer (SeaBlock (Pierce), 1% BSA, 0.05% Tween 20, 1 mM DTT) to remove unbound ligand and to reduce non-specific binding. […] Test compounds were prepared as 111× stocks in 100% DMSO. Kds were determined using an 11-point 3-fold compound dilution series with three DMSO control points. […] The compounds were then diluted directly into the assays such that the final concentration of DMSO was 0.9%. All reactions performed in polypropylene 384-well plate. Each was a final volume of 0.02 ml. […] The kinase concentration in the eluates was measured by qPCR. Binding constants (Kds) were calculated with a standard dose-response curve using a non-linear least square fit with the Levenberg-Marquardt algorithm.

FLT3 (ITD) = experiment: KINOMEscan binding assay (Eurofins DiscoveRx)
Method: as §2

FLT3 (D835V) = FLT3 (D835V) (Homo sapiens (Human), UniProt P36888, D835V); experiment: KINOMEscan binding assay (Eurofins DiscoveRx)
Method: as §2

FLT3 (ITD, F691L) = experiment: KINOMEscan binding assay (Eurofins DiscoveRx)
Method: as §2

FLT3 = FLT3 (Homo sapiens (Human), UniProt P36888); experiment: KINOMEscan binding assay (Eurofins DiscoveRx)
Method: as §2

FLT3 (D835H) = FLT3 (D835H) (Homo sapiens (Human), UniProt P36888, D835H); experiment: KINOMEscan binding assay (Eurofins DiscoveRx)
Method: as §2

FLT3 (ITD, D835V) = experiment: KINOMEscan binding assay (Eurofins DiscoveRx)
Method: as §2

FLT3 (K663Q) = FLT3 (K663Q) (Homo sapiens (Human), UniProt P36888, K663Q); experiment: KINOMEscan binding assay (Eurofins DiscoveRx)
Method: as §2

FLT3 (D835Y) = FLT3 (D835Y) (Homo sapiens (Human), UniProt P36888, D835Y); experiment: KINOMEscan binding assay (Eurofins DiscoveRx)
Method: as §2

FLT3 (R834Q) = FLT3 (R834Q) (Homo sapiens (Human), UniProt P36888, R834Q); experiment: KINOMEscan binding assay (Eurofins DiscoveRx)
Method: as §2

FLT3 (N841I) = FLT3 (N841I) (Homo sapiens (Human), UniProt P36888, N841I); experiment: KINOMEscan binding assay (Eurofins DiscoveRx)
Method: as §2

BCLxS/xL = experiment: Alternative splicing ratio by qPCR in MOLM-13; type: cell-based; conditions: DMSO = 1.00
Method: as §1
• BCLxS/xL (SYBR Green, IDT)

pKd (FLT3-autoinhibited): 8.04
pKd (FLT3 (ITD)): 8.20
pKd (FLT3 (D835V)): 10.21
pKd (FLT3 (ITD, F691L)): 9.64
pKd (FLT3): 9.74
pKd (FLT3 (D835H)): 7.17
pKd (FLT3 (ITD, D835V)): 10.24
pKd (FLT3 (K663Q)): 7.80
pKd (FLT3 (D835Y)): 8.39
pKd (FLT3 (R834Q)): 9.05
pKd (FLT3 (N841I)): 8.66
SMILES: CCc1nn(C)c2c1/C=C/c1n[nH]c3ccc(cc13)-c1cnn(C)c1OCCN(C)C2=O [Ex. 6, (17E)-16-ethyl-8,12,14-trimethyl-2,11,12,14-tetrahydro-8H-3,5-ethenotripyrazolo[3,4-f:3′,4′-j:4″,3″-n][1,4]oxazacyclopentadecin-13(10H)-one]
Alternative Splicing Ratio BCLAF1 Ex. 10-12/Ex. 10-11 ([1]; MOLM-13, 30 nM): 1.80
Alternative Splicing Ratio BCLAF1 Ex. 10-12/Ex. 10-11 ([1]; MOLM-13, 100 nM): 5.76
Alternative Splicing Ratio BCLAF1 Ex. 10-12/Ex. 10-11 ([1]; MOLM-13, 300 nM): 6.89
TGI % (IMR-32 tumor): 82%
Alternative Splicing Ratio BCL-xS/xL (BCLxS/xL; MOLM-13, 30 nM): 1.51
Alternative Splicing Ratio BCL-xS/xL (BCLxS/xL; MOLM-13, 100 nM): 3.54
Alternative Splicing Ratio BCL-xS/xL (BCLxS/xL; MOLM-13, 300 nM): 4.20
